Measured values taken from ChEMBL document CHEMBL1201862, “PubChem BioAssay data set” (2004).
Calls of active or inactive are those of the source.

Key:
Caspase-6 = molecular target: T1, Caspase-6 (Homo sapiens, UniProt P55212); test: human caspase-6 inhibitors, dose response, biochemical, VEID-R110 fluorescence, dry powder retest (AID 743332)
T1 sequence (P55212 whole entry): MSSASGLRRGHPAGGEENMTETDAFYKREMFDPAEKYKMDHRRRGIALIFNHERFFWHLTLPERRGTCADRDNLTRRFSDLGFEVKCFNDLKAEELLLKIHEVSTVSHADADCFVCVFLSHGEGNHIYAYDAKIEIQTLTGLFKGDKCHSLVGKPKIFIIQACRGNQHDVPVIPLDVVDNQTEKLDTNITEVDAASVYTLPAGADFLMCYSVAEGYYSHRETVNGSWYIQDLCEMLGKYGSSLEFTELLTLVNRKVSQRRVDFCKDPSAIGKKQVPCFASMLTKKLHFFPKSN

[1] = HEK293T cytotoxicity, dose response, cytotoxicity control for miR-122 modulator project, cell-based, inhibitor set, cherry-pick, set 2 (AID 720697); assay type: functional
[2] = miR-122 activators in hepatoma reporter cells, dose response, cell-based, Huh7 psiCHECK-miR122, Renilla luciferase, cherry-picked (AID 651956); assay type: functional;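 further: huh7 hepatoma cells stably carrying a psiCHECK-2 miR-122 sensor plasmid; renilla luciferase signal reporting endogenous miR-122 activity after 48 h compound exposure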
[3] = LGR2 antagonists, dose response, cell-based, HEK293, CRE-luciferase reporter, cherry pick (AID 743342); assay type: functional
[4] = HeLa cell cytotoxicity, dose response, cytotoxicity control, 24 h, plate reader, dry powder (AID 686928); assay type: functional, cell-based
[5] = molecular target: Potassium channel subfamily K member 3 (Homo sapiens, UniProt O14649); test: TASK1 (KCNK3) potassium channel inhibitors, SAR follow-up, CHO cells, FluxOR thallium flux (AID 652212); assay type: functional
[6] = molecular target: Potassium channel subfamily K member 9 (Homo sapiens, UniProt Q9NPC2); test: TASK3 (KCNK9) channel inhibitors, thallium flux, SAR follow-up, selectivity assay for TASK1 inhibitor project, cell-based, FluxOR thallium flux, concentration-response (AID 652211); assay type: functional;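 further: potency is for inhibitors of the channel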
A549 = test: A549 cell toxicity, dose response, cytotoxicity control, plate reader, cherry-pick samples (AID 687028); assay type: functional, cell-based; details: Homo sapiens
[7] = Counterscreen for activators of the function of SWI/SNF related, matrix associated, actin dependent regulator of chromatin, subfamily a, member 2 (SMARCA2, BRM): Luminescence-based cell-based high throughput dose response assay to identify non-selective compounds using the VP16 reporter assay.; assay type: functional
[8] = molecular target: T2, Short transient receptor potential channel 4 (Mus musculus, UniProt Q9QUQ5); test: mouse TRPC4 channel inhibitors, dose response, cell-based, HEK293 TRPC4/mu-opioid, Fluo-4 calcium (AID 434942); assay type: functional;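 further: potency of inhibitors blocking the TRPC4 calcium response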
T2 sequence (Q9QUQ5 whole entry): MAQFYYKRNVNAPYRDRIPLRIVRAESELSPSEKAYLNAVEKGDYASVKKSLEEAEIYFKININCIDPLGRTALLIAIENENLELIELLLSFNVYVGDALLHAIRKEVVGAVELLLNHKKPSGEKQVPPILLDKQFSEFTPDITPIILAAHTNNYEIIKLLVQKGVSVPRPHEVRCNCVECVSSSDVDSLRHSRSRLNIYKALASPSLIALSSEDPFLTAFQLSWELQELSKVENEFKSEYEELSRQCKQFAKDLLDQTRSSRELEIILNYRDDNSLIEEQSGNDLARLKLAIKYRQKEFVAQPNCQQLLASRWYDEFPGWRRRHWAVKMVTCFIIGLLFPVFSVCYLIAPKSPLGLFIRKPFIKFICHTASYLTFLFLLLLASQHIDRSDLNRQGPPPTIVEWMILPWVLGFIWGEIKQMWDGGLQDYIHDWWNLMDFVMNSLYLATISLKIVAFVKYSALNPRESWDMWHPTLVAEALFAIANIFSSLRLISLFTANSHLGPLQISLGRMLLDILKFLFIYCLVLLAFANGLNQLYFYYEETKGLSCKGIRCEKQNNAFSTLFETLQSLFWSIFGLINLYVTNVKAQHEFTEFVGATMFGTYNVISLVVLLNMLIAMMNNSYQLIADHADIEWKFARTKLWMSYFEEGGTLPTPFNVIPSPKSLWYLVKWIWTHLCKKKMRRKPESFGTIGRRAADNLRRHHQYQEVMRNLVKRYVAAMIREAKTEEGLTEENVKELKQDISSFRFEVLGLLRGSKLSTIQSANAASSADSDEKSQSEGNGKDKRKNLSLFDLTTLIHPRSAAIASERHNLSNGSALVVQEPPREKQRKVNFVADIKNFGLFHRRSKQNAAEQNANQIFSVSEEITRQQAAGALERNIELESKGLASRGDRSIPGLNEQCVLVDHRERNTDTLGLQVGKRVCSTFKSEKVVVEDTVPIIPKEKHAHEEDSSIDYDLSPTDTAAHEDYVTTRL

[9] = molecular target: SWI/SNF-related matrix-associated actin-dependent regulator of chromatin subfamily A member 2 (Homo sapiens, UniProt P51531); test: Luminescence-based cell-based high throughput dose response assay to identify activators of the function of SWI/SNF related, matrix associated, actin dependent regulator of chromatin, subfamily a, member 2 (SMARCA2, BRM).; assay type: functional
Chain of SWI/SNF-related matrix-associated actin-dependent regulator of chromatin subfamily A member 2 (P51531 whole entry): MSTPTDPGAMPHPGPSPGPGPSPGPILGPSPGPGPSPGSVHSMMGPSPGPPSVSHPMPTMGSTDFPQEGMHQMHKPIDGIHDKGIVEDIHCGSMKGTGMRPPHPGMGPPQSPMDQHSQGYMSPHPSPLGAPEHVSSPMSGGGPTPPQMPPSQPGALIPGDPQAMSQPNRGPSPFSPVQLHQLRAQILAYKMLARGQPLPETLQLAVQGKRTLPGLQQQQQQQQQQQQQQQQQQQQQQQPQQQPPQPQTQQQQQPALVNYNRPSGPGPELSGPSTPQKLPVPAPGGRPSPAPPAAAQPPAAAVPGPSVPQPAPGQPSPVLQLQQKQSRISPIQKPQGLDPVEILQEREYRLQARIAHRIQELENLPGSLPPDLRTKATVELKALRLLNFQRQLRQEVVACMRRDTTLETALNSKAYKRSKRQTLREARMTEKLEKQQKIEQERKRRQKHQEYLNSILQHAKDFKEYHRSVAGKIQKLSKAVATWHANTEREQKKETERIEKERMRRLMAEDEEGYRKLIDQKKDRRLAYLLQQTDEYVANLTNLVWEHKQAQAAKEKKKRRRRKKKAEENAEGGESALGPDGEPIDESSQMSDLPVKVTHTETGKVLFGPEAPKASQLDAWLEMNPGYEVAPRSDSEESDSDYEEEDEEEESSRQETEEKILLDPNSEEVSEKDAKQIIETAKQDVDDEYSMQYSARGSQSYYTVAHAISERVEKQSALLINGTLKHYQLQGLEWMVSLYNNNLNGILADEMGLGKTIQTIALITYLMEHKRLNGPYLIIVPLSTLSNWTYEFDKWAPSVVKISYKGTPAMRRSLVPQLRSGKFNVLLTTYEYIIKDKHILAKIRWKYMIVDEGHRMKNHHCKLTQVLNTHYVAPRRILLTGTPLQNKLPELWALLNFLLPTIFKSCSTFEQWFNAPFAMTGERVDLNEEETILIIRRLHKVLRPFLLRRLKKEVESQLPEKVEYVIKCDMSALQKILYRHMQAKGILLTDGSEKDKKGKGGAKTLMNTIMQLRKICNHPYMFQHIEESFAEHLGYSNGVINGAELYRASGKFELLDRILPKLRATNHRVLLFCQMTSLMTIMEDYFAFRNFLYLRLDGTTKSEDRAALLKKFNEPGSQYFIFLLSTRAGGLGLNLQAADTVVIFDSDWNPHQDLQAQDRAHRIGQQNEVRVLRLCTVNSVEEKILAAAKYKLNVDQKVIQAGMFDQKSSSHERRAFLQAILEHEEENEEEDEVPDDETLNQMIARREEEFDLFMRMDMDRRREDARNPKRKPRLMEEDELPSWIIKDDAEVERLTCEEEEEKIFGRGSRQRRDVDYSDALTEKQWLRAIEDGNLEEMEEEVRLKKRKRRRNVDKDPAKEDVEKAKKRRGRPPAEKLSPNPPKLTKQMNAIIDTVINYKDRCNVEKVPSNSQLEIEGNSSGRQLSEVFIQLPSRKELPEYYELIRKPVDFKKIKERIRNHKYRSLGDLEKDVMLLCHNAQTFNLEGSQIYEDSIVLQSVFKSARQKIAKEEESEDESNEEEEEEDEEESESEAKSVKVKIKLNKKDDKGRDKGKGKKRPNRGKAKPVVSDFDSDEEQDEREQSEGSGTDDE

Chain of Potassium channel subfamily K member 9 (Q9NPC2 whole entry): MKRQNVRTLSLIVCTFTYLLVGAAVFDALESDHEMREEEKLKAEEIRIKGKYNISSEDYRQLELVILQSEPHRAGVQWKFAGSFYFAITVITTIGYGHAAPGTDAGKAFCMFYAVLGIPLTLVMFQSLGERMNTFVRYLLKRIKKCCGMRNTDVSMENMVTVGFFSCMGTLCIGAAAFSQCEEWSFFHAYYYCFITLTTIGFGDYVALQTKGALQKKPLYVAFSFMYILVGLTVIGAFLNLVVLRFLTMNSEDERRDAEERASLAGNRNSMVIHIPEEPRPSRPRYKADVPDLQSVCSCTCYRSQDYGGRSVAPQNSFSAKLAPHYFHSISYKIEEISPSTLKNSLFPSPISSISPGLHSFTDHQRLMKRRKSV
Chain of Potassium channel subfamily K member 3 (O14649 whole entry): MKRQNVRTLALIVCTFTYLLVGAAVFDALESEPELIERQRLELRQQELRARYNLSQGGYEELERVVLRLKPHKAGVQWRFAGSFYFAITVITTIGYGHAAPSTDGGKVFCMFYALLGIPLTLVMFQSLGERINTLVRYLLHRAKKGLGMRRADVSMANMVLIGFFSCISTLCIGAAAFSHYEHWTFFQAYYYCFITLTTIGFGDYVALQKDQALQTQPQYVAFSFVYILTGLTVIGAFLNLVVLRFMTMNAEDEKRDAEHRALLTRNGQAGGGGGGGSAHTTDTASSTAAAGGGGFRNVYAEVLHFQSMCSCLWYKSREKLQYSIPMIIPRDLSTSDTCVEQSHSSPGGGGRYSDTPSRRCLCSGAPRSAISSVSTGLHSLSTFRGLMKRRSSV

O=C(c1ccc(-n2cccc2)cc1)N1CCN(S(=O)(=O)c2ccccc2)CC1
AC50 (Caspase-6): 23.9 µM (active)

Cn1c(-c2ccc(N)cc2)nc2ccccc21
AC50 [1]: 9.34 µM (active)

C[C@H](CO)N1C[C@H](C)[C@H](CN(C)CC2CCCCC2)OCCCC[C@H](C)Oc2ccc(NC(=O)Nc3cccc4ccccc34)cc2C1=O
AC50 [2]: 3.25 µM (active)

C[C@H](CO)N1C[C@H](C)[C@H](CN(C)C(=O)Nc2ccc3c(c2)OCO3)OCCCC[C@H](C)Oc2ccc(NC(=O)NC3CCCCC3)cc2C1=O
AC50 [3]: 9.97 µM (active)

CC(C)(C)COC(=O)CSc1n[nH]c(=O)[nH]c1=O
AC50 [4]: > 76 µM (inactive)

CCOc1ccccc1NC(=O)c1cccc(NC(=O)c2ccc(C)cc2)c1
IC50 [5]: 0.134 µM (active) | IC50 [6]: 14.7 µM (active)

CCCCCCCCN1C(=O)[C@H](CC(=O)NCCC(C)C)C[C@@]2(C(=O)OCC)CCCC=C12
AC50 (A549): 21 µM (active)

Cn1cc(-c2nc3ccccc3[nH]2)c2ccccc21
EC50 [7]: > 91.2 µM (inactive) | EC50 [8]: 3.76 µM (active) | EC50 [9]: > 91.2 µM (inactive)
